Each block holds one molecule with its values, some of them ahead of it.
Assays:
PaTu-T cells = assay: SRB antiproliferative assay, PaTu-T; assay type: cell-based, human; conditions: for Cell growth percentage: 10 μM, 72 h exposure; for IC50: Homo sapiens, 72 h, mean ± SEM, read-out: Half-maximal inhibitory concentration (IC50)
Protocol: (§1) The cytotoxic activity of the nortopsentin derivatives 3b, 3e, 4c, 5b, and 6c on pancreatic cancer cells (BxPC-3, Panc-1, Suit-2, Capan-1, PaTu-T, primary PDAC-3 and resistant Panc-1-GR cells) was determined by the sulforhodamine B (SRB) chemosensitivity assay, as described previously. Cells were plated in 96-well flat-bottom plates at final concentrations ranging from 3000–5000 cells/well in 100 µL of medium. After a 24 h pre-incubation period, cells were treated with the compounds at nine screening concentrations (from 0.1 μM to 40 μM) in triplicate and incubated at 37 °C for 72 h. After the treatment, cells were fixed with 25 µL of cold 50% trichloroacetic acid (TCA) for each well and incubated at 4 °C for 1 h. Afterwards, plates were washed five times with demi-water and air-dried overnight. Then, the plates were stained with 50 µL of 0.4% SRB solution in 1% acetic acid for 15 min. The excess stain was rinsed off by placing the plates under running 1% acetic acid and allowed to dry at room temperature overnight. SRB staining was rinsed with 150 µL tris(hydroxymethyl)aminomethane solution pH = 8.8 (TRIS-base), and the optical density (OD) was read at 492 nm. Each assay was performed in triplicate and assays were repeated at least three times. The comparison of the average optical density of the growth in control wells with that in the sample wells allowed the estimation of the percentage of cell growth, using the following equation: % Cell Growth = (mean ODcompound − mean ODday zero plate)/(mean ODcells − mean ODday zero plate) × 100
(§2) The results obtained were adjusted by the day zero plate (wells containing cells growing for only 24 h) and normalized by the control cells (wells with untreated cells) to obtain the rate of viable cells.

PDAC-3 cells = assay: SRB antiproliferative assay, primary culture PDAC-3; assay type: cell-based, human; conditions: for Cell growth percentage: PDAC-3, 10 μM, 72 h exposure; for IC50: Homo sapiens, PDAC-3, 72 h, mean ± SEM, read-out: Half-maximal inhibitory concentration (IC50)
Protocol: as §1, §2

Panc-1-GR cells = assay: SRB antiproliferative assay, gemcitabine-resistant Panc-1-GR; assay type: cell-based, human; conditions: for Cell growth percentage: 10 μM, 72 h exposure; for IC50: Homo sapiens, 72 h, mean ± SEM, read-out: Half-maximal inhibitory concentration (IC50)
Protocol: as §1, §2

Panc-1 cells = assay: SRB antiproliferative assay, Panc-1; assay type: cell-based, human; conditions: for IC50: Homo sapiens, Panc-1, 72 h, mean ± SEM, read-out: Half-maximal inhibitory concentration (IC50); for Cell growth percentage: Panc-1, 10 μM, 72 h exposure
Protocol: as §1, §2

Suit-2 cells = assay: SRB antiproliferative assay, Suit-2; assay type: cell-based, human; conditions: for Cell growth percentage: Suit-2, 10 μM, 72 h exposure; for IC50: Homo sapiens, Suit-2, 72 h, mean ± SEM, read-out: Half-maximal inhibitory concentration (IC50)
Protocol: as §1, §2

BxPC-3 cells [1] = assay: SRB antiproliferative assay, BxPC-3; assay type: cell-based, human; conditions: for Cell growth percentage: BxPC-3, 10 μM, 72 h exposure; for IC50: Homo sapiens, BxPC-3, 72 h, mean ± SEM, read-out: Half-maximal inhibitory concentration (IC50)
Protocol: as §1, §2

Capan-1 cells = assay: SRB antiproliferative assay, Capan-1; assay type: cell-based, human; conditions: for Cell growth percentage: Capan-1, 10 μM, 72 h exposure; for IC50: Homo sapiens, Capan-1, 72 h, mean ± SEM, read-out: Half-maximal inhibitory concentration (IC50)
Protocol: as §1, §2

PDAC cells = assay: SRB antiproliferative assay, whole PDAC panel; assay type: cell-based; conditions: Homo sapiens; seven PDAC models, 72 h; read-out: IC50 values, range over the PDAC cell panel
Protocol: as §1, with “The comparison of the average optical density of the growth in control wells with that in the sample wells allowed the estimation of the percentage of cell growth, using the following equation: % Cell Growth = (mean ODcompound − mean ODday zero plate)/(mean ODcells − mean ODday zero plate) × 100” left out

BxPC-3 cells [2] = assay: Scratch wound-healing assay, BxPC-3; assay type: cell-based, human; conditions: BxPC-3, 8 h, 4 × IC50, untreated = 100% wound closure
Protocol: Cell migration was assessed using a wound-healing assay, as described previously. A total of 5 × 10^4 cells/well were seeded in a 96-well plate, to form a confluent monolayer. Scratches were created in confluent cell layers using the sterile scratch tool. The detached cells following scratch induction were removed and new medium was added to the wells. Cells were next treated with compounds 3b and 5b at a concentration of 4 × IC50. Cells growing in a complete medium were maintained at 37 °C with a supply of 5% CO2/95% air atmosphere and 100% relative humidity. The progress of wound closure was observed and documented at various time points (0th, 4th, 8th, 20th, and 24th h) using phase-contrast microscopy. Pictures of the plates were taken using the Universal Grab 6.3 software (DCILabs) from a computer connected to a Leica microscope with a JAI TMC-1327 camera.
The percentage of migration was calculated using the following equation:%Migration = (Width of the wound at T = 0 − Width of the wound at T = X)/(Width of the wound at T = 0) × 100

Compound: Cn1cc(-c2nnc(-c3c[nH]c4ncccc34)s2)c2ccccc21 [5a, 3-[5-(1-methyl-1H-indol-3-yl)-1,3,4-thiadiazol-2-yl]-7-azaindole]
melting point: 246 °C

Compound: Cn1cc(-c2nnc(-c3ccccc3)s2)c2cc(Br)cnc21 [6d, 5-bromo-1-methyl-3-(5-phenyl-1,3,4-thiadiazol-2-yl)-7-azaindole]
melting point: 188 °C

Compound: Brc1cnc2[nH]cc(-c3nnc(-c4ccccc4)o3)c2c1 [4c, 5-bromo-3-(5-phenyl-1,3,4-oxadiazol-2-yl)-7-azaindole]
Cell growth percentage (PaTu-T cells): 31.22% | IC50 (PaTu-T cells): 9.7 ± 0.17 µM | Cell growth percentage (PDAC-3 cells): 96.60% | melting point: 275 °C | Cell growth percentage (Panc-1-GR cells): 98.62% | IC50 (Panc-1-GR cells): 10.8 ± 1.4 µM | IC50 (Panc-1 cells): 13.4 ± 3.2 µM | Cell growth percentage (Panc-1 cells): 74.33% | Cell growth percentage (Suit-2 cells): 60.18% | Cell growth percentage (BxPC-3 cells [1]): 21.13% | IC50 (BxPC-3 cells [1]): 3.3 ± 2.4 µM | Cell growth percentage (Capan-1 cells): 75.17% | IC50 (Capan-1 cells): 10.8 ± 0.67 µM

Compound: Cn1cc(-c2nnc(-c3c[nH]c4ncccc34)o2)c2ccccc21 [3a, 3-[5-(1-methyl-1H-indol-3-yl)-1,3,4-oxadiazol-2-yl]-7-azaindole]
melting point: 302 °C

Compound: Cn1cc(-c2nnc(-c3ccccc3)s2)c2cccnc21 [6b, 1-methyl-3-(5-phenyl-1,3,4-thiadiazol-2-yl)-7-azaindole]
melting point: 191 °C

Compound: Cn1cc(-c2nnc(-c3ccccc3)o2)c2cccnc21 [4b, 1-methyl-3-(5-phenyl-1,3,4-oxadiazol-2-yl)-7-azaindole]
melting point: 201 °C

Compound: Brc1cnc2[nH]cc(-c3nnc(-c4ccccc4)s3)c2c1 [6c, 5-bromo-3-(5-phenyl-1,3,4-thiadiazol-2-yl)-7-azaindole]
Cell growth percentage (PaTu-T cells): 56.09% | IC50 (PaTu-T cells): 3.8 ± 1.8 µM | Cell growth percentage (PDAC-3 cells): 87.84% | melting point: 308 °C | IC50 (Panc-1 cells): 11.5 ± 1.2 µM | Cell growth percentage (Panc-1 cells): 83.68% | IC50 (Suit-2 cells): 4.1 ± 0.9 µM | Cell growth percentage (Suit-2 cells): 29.80% | Cell growth percentage (BxPC-3 cells [1]): 54.59% | Cell growth percentage (Capan-1 cells): 76.76% | IC50 (Capan-1 cells): 12.6 ± 1.3 µM

Compound: Cn1cc(-c2nnc(-c3ccccc3)o2)c2cc(Br)cnc21 [4d, 5-bromo-1-methyl-3-(5-phenyl-1,3,4-oxadiazol-2-yl)-7-azaindole]
melting point: 236 °C

Compound: Cn1cc(-c2nnc(-c3cn(C)c4ncccc34)o2)c2cc(Br)ccc21 [3d, 3-[5-(5-bromo-1-methyl-1H-indol-3-yl)-1,3,4-oxadiazol-2-yl]-1-methyl-7-azaindole]
melting point: 277 °C

Compound: c1ccc(-c2nnc(-c3c[nH]c4ncccc34)o2)cc1 [4a, 3-(5-phenyl-1,3,4-oxadiazol-2-yl)-7-azaindole]
melting point: 272 °C

Compound: c1ccc(-c2nnc(-c3c[nH]c4ncccc34)s2)cc1 [6a, 3-(5-phenyl-1,3,4-thiadiazol-2-yl)-7-azaindole]
melting point: 249 °C

Compound: Cn1cc(-c2nnc(-c3cn(C)c4ncccc34)o2)c2cc(F)ccc21 [3c, 3-[5-(5-fluoro-1-methyl-1H-indol-3-yl)-1,3,4-oxadiazol-2-yl]-1-methyl-7-azaindole]
melting point: 268 °C

Continued, in another order:

melting point: 200 °C
Compound: COc1ccc2c(c1)c(-c1nnc(-c3cn(C)c4ncccc34)s1)cn2C [5e, 3-[5-(5-methoxy-1-methyl-1H-indol-3-yl)-1,3,4-thiadiazol-2-yl]-1-methyl-7-azaindole]

melting point: 310 °C
Compound: Cn1cc(-c2nnc(-c3cn(C)c4ncc(Br)cc34)o2)c2cc(F)ccc21 [3g, 5-bromo-3-[5-(5-fluoro-1-methyl-1H-indol-3-yl)-1,3,4-oxadiazol-2-yl]-1-methyl-7-azaindole]

melting point: 244 °C | IC50 (Panc-1-GR cells): 9.8 ± 0.05 µM | IC50 (Panc-1 cells): 3.5 ± 0.01 µM | IC50 (BxPC-3 cells [1]): 2.7 ± 0.68 µM
Compound: Cn1cc(-c2nnc(-c3cn(C)c4ncccc34)s2)c2ccccc21 [5b, 1-methyl-3-[5-(1-methyl-1H-indol-3-yl)-1,3,4-thiadiazol-2-yl]-7-azaindole]
Cell growth percentage (PaTu-T cells): 27.73% | IC50 (PaTu-T cells): 3.4 ± 0.06 µM | IC50 (PDAC-3 cells): 10.6 ± 0.04 µM | Cell growth percentage (PDAC-3 cells): 55.90% | Cell growth percentage (Panc-1-GR cells): 40.65% | IC50 (PDAC cells): 1.9 to 10.6 µM | Cell growth percentage (Panc-1 cells): 15.68% | percentage of cells migrating (BxPC-3 cells [2]): 66% | IC50 (Suit-2 cells): 1.9 ± 0.27 µM | Cell growth percentage (Suit-2 cells): 19.46% | Cell growth percentage (BxPC-3 cells [1]): 32.88% | Cell growth percentage (Capan-1 cells): 30.86% | IC50 (Capan-1 cells): 3.3 ± 0.61 µM

melting point: 292 °C
Compound: Cn1cc(-c2nnc(-c3cn(C)c4ncccc34)s2)c2cc(Br)ccc21 [5c, 3-[5-(5-bromo-1-methyl-1H-indol-3-yl)-1,3,4-thiadiazol-2-yl]-1-methyl-7-azaindole]

melting point: 275 °C
Compound: Cn1cc(-c2nnc(-c3cn(C)c4ncc(Br)cc34)o2)c2cc(Br)ccc21 [3f, 5-bromo-3-[5-(5-bromo-1-methyl-1H-indol-3-yl)-1,3,4-oxadiazol-2-yl]-1-methyl-7-azaindole]

melting point: 244 °C
Compound: Cn1cc(-c2nnc(-c3cn(C)c4ncc(Br)cc34)o2)c2ccccc21 [3e, 5-bromo-1-methyl-3-[5-(1-methyl-1H-indol-3-yl)-1,3,4-oxadiazol-2-yl]-7-azaindole]
Cell growth percentage (PaTu-T cells): 72.33% | IC50 (PDAC-3 cells): 23 ± 0.06 µM | Cell growth percentage (Panc-1 cells): 61.96% | IC50 (Suit-2 cells): 9.4 ± 4.3 µM | Cell growth percentage (Suit-2 cells): 54.94% | Cell growth percentage (BxPC-3 cells [1]): 58.64% | Cell growth percentage (Capan-1 cells): 59.84%

melting point: 240 °C
Compound: Cn1cc(-c2nnc(-c3cn(C)c4ncccc34)s2)c2cc(F)ccc21 [5d, 3-[5-(5-fluoro-1-methyl-1H-indol-3-yl)-1,3,4-thiadiazol-2-yl]-1-methyl-7-azaindole]

melting point: 275 °C
Compound: Cn1cc(-c2nnc(-c3cn(C)c4ncc(Br)cc34)s2)c2cc(Br)ccc21 [5g, 5-bromo-3-[5-(5-bromo-1-methyl-1H-indol-3-yl)-1,3,4-thiadiazol-2-yl]-1-methyl-7-azaindole]

melting point: 290 °C
Compound: Cn1cc(-c2nnc(-c3cn(C)c4ncc(Br)cc34)s2)c2cc(F)ccc21 [5h, 5-bromo-3-[5-(5-fluoro-1-methyl-1H-indol-3-yl)-1,3,4-thiadiazol-2-yl]-1-methyl-7-azaindole]

melting point: 233 °C
Compound: Cn1cc(-c2nnc(-c3cn(C)c4ncc(Br)cc34)s2)c2ccccc21 [5f, 5-bromo-1-methyl-3-[5-(1-methyl-1H-indol-3-yl)-1,3,4-thiadiazol-2-yl]-7-azaindole]
